Measured values reported in US8901118B2, “Compounds and methods for kinase modulation, and indications therefor” (Plexxikon Inc., priority 2010, dated 2014).

Columns and labels:
[1] = biological target: T1, BCR-FMS BaF3 cells (Homo sapiens, UniProt P07333); assay: BaF3 BCR-FMS cell proliferation assay (ATPlite); format: cell-based; conditions: read-out: Inhibition of Cell Proliferation IC50, BCR/BaF3 Fms
T1 construct: fused on or other part: P11274 (Breakpoint cluster region protein)
T1 sequence (P07333 582-910): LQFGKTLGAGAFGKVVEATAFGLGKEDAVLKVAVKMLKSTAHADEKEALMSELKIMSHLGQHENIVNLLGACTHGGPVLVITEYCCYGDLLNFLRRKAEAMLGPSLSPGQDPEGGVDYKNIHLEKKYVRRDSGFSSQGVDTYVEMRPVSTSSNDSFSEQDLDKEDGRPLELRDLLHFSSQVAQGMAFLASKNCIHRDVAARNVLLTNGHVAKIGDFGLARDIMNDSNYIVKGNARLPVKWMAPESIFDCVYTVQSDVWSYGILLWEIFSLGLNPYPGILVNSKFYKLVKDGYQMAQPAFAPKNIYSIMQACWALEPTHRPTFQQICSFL
Summary of the method: (§1)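 Proliferation was run for 3 days at 37 °C against 8-point 1:3 titrations with 10 μM as the top final concentration. Seeding was 10,000 cells/well for BaF3 BCR-fusion lines, grown without IL-3, and 25,000 cells/well for MV-4-11. IC50 was derived from ATPlite luminescence read as cell number.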

[2] = biological target: T2, BCR-NTRK1 BaF3 cells (Homo sapiens, UniProt P04629); assay: BaF3 BCR-NTRK1 cell proliferation assay (ATPlite); format: cell-based; conditions: read-out: Inhibition of Cell Proliferation IC50, BCR/BaF3 TrkA
T2 construct: fused on or other part: P11274 (Breakpoint cluster region protein)
T2 sequence (P04629 510-781): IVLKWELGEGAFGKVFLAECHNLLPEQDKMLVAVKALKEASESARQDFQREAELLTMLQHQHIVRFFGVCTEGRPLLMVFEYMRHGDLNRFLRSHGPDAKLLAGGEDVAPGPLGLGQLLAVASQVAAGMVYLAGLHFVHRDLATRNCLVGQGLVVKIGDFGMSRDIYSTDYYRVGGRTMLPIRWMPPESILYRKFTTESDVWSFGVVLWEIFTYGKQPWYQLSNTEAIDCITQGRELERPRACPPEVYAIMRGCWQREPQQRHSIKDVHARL
Summary of the method: as §1

[3] = biological target: T3, BCR-NTRK2 BaF3 cells (Homo sapiens, UniProt Q16620); assay: BaF3 BCR-NTRK2 cell proliferation assay (ATPlite); format: cell-based; conditions: read-out: Inhibition of Cell Proliferation IC50, BCR/BaF3 TrkB
T3 construct: fused on or other part: P11274 (Breakpoint cluster region protein)
T3 sequence (Q16620 538-807): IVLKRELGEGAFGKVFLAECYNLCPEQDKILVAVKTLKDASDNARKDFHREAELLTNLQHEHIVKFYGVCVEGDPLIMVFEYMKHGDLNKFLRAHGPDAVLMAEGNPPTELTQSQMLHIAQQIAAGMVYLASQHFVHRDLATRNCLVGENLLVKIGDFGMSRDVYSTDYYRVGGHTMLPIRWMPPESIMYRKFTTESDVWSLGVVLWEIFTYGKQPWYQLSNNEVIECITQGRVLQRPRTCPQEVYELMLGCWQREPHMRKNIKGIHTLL
Summary of the method: as §1

[4] = biological target: CYP2C19 (Homo sapiens, UniProt P33261); assay: CYP2C19 inhibition (fluorescent substrate CEC); format: in vitro ADME; conditions: read-out: Cyp IC50 2C19
Sequence of CYP2C19 (P33261 whole entry): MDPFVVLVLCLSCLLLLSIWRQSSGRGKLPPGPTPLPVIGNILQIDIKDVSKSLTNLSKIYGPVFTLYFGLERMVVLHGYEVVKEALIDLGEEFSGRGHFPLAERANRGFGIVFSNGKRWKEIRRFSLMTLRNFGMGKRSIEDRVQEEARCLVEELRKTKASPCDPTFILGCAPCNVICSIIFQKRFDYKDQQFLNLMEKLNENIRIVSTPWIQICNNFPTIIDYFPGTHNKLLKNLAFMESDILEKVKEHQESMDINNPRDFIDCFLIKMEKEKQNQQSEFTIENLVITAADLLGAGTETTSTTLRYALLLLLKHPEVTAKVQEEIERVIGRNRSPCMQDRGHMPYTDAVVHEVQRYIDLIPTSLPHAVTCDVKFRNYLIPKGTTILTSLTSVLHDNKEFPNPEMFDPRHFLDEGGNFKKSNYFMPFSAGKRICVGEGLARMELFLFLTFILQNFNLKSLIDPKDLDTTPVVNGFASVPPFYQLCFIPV
Summary of the method: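 10-pt 1:1 dilution series (from 100 mM DMSO stock) in NADPH regen cofactor mix, 5% MeCN; 10 min preincubation at 37 °C. Enzyme reaction 37 °C: 1A2 15 min, 2C9 45 min, 2C19/2D6 30 min. Fluorescence readout; IC50 fit.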

[5] = biological target: CYP3A4(BFC) (Homo sapiens, UniProt P08684); assay: CYP3A4(BFC) inhibition; format: in vitro ADME; conditions: CYP3A4, substrate BFC; read-out: Cyp IC50 3A4(BFC)
Sequence of CYP3A4(BFC) (P08684 whole entry): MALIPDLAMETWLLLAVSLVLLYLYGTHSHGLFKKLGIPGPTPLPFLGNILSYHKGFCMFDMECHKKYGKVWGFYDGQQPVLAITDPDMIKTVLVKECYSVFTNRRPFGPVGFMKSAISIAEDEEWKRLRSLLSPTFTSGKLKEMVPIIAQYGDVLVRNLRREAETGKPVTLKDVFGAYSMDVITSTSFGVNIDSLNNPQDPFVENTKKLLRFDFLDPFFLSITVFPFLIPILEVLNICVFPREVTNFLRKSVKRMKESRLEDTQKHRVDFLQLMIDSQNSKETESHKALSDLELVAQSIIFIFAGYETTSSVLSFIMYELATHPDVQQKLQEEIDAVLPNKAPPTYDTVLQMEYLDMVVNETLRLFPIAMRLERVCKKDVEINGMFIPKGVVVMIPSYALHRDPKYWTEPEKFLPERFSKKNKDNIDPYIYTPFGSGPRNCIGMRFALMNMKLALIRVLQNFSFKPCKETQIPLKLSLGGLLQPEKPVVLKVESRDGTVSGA
Summary of the method: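 This fluorescence assay tracks how test compounds reduce CYP3A4 turnover of BFC, with enzyme and substrate from BD Biosciences. A 10-point 1:1 dilution series in cofactor mix (1.3% NADPH Regeneration Solution A, 1.04% Solution B, 5% acetonitrile, 0.05% DMSO) was dispensed at 10 μL into 384 well plates, preincubated 10 minutes at 37° C, then incubated 30 min and read on a Tecan Safire 2.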

Row | SMILES | IC50 [1] [µM] | IC50 [2] [µM] | IC50 [3] [µM] | IC50 [4] [µM] | IC50 [5] [µM]
1 | COc1cncc(Nc2ccc(C(=O)c3c[nH]c4ncnc(NC5CC5)c34)c(F)n2)c1 [Compound P-4107, [4-(cyclopropylamino)-7H-pyrrolo[2,3-d]pyrimidin-5-yl]-[2-fluoro-6-[(5-methoxy-3-pyridyl)amino]-3-pyridyl]methanone] | < 0.1 | < 0.1 | < 0.1 | < 5 | > 10
2 | CNc1ncnc2[nH]cc(C(=O)c3ccc(Nc4cncc(OC)c4)nc3F)c12 [Compound P-4108, [2-fluoro-6-[(5-methoxy-3-pyridyl)amino]-3-pyridyl]-[4-(methylamino)-7H-pyrrolo[2,3-d]pyrimidin-5-yl]methanone] | < 0.1 | < 1 | < 1 | < 5 | > 10
3 | CC(C)Nc1ncnc2[nH]cc(C(=O)c3ccc(NC4CCCCC4)nc3Cl)c12 [Compound P-4109, [2-chloro-6-(cyclohexylamino)-3-pyridyl]-[4-(isopropylamino)-7H-pyrrolo[2,3-d]pyrimidin-5-yl]methanone] | < 0.1 | < 1 | < 1 | 5 to 10 | > 10
4 | CNc1ncnc2[nH]cc(C(=O)c3ccc(NC4CCCCC4)nc3Cl)c12 [Compound P-4110, [2-chloro-6-(cyclohexylamino)-3-pyridyl]-[4-(methylamino)-7H-pyrrolo[2,3-d]pyrimidin-5-yl]methanone] | < 0.1 | > 1 | > 1 | < 5 | > 10
5 | Cc1ccc(Nc2ccc(C(=O)c3c[nH]c4ncnc(NC5CCCCC5)c34)c(F)n2)cn1 [Compound P-4111, [4-(cyclohexylamino)-7H-pyrrolo[2,3-d]pyrimidin-5-yl]-[2-fluoro-6-[(6-methyl-3-pyridyl)amino]-3-pyridyl]methanone] | < 0.1 | < 0.01 | < 0.01 | 5 to 10 | > 10
6 | Cc1ccc(Nc2ccc(C(=O)c3c[nH]c4ncnc(NCC(F)(F)F)c34)c(F)n2)cn1 [Compound P-4112, [2-fluoro-6-[(6-methyl-3-pyridyl)amino]-3-pyridyl]-[4-(2,2,2-trifluoroethylamino)-7H-pyrrolo[2,3-d]pyrimidin-5-yl]methanone] | < 0.1 | < 0.1 | < 0.1 | < 5 | > 10
7 | CNc1ncnc2[nH]cc(C(=O)c3ccc(Nc4ccc(C)nc4)nc3F)c12 [Compound P-4115, [2-fluoro-6-[(6-methyl-3-pyridyl)amino]-3-pyridyl]-[4-(methylamino)-7H-pyrrolo[2,3-d]pyrimidin-5-yl]methanone] | < 0.01 | < 0.1 | < 0.1 | < 5 | > 10
8 | CCc1ccc(Nc2ccc(C(=O)c3c[nH]c4ncnc(NC5CCOCC5)c34)c(F)n2)cn1 [Compound P-4116, [6-[(6-ethyl-3-pyridyl)amino]-2-fluoro-3-pyridyl]-[4-(tetrahydropyran-4-ylamino)-7H-pyrrolo[2,3-d]pyrimidin-5-yl]methanone] | < 0.01 | < 0.01 | < 0.01 | > 10 | > 10
9 | CCc1ccc(Nc2ccc(C(=O)c3c[nH]c4ncnc(NC(C)C)c34)c(F)n2)cn1 [Compound P-4117, [6-[(6-ethyl-3-pyridyl)amino]-2-fluoro-3-pyridyl]-[4-(isopropylamino)-7H-pyrrolo[2,3-d]pyrimidin-5-yl]methanone] | < 0.01 | < 0.01 | < 0.01 | > 10 | > 10
10 | CCc1ccc(Nc2ccc(C(=O)c3c[nH]c4ncnc(NCC5CC5)c34)c(F)n2)cn1 [Compound P-4118, [4-(cyclopropylmethylamino)-7H-pyrrolo[2,3-d]pyrimidin-5-yl]-[6-[(6-ethyl-3-pyridyl)amino]-2-fluoro-3-pyridyl]methanone] | < 0.01 | < 0.01 | < 0.01 | > 10 | > 10
11 | CCc1ccc(Nc2ccc(C(=O)c3c[nH]c4ncnc(NCCOC)c34)c(F)n2)cn1 [Compound P-4119, [6-[(6-ethyl-3-pyridyl)amino]-2-fluoro-3-pyridyl]-[4-(2-methoxyethylamino)-7H-pyrrolo[2,3-d]pyrimidin-5-yl]methanone] | < 0.01 | < 0.01 | < 0.01 | > 10 | > 10
12 | CCc1ccc(Nc2ccc(C(=O)c3c[nH]c4ncnc(NCC(F)(F)F)c34)c(F)n2)cn1 [Compound P-4120, [6-[(6-ethyl-3-pyridyl)amino]-2-fluoro-3-pyridyl]-[4-(2,2,2-trifluoroethylamino)-7H-pyrrolo[2,3-d]pyrimidin-5-yl]methanone] | < 0.1 | < 0.01 | < 0.01 | < 5 | > 10
13 | CCc1ccc(Nc2ccc(C(=O)c3c[nH]c4ncnc(NCC(C)C)c34)c(F)n2)cn1 [Compound P-4121, [6-[(6-ethyl-3-pyridyl)amino]-2-fluoro-3-pyridyl]-[4-(isobutylamino)-7H-pyrrolo[2,3-d]pyrimidin-5-yl]methanone] | < 0.01 | < 0.01 | < 0.01 | 5 to 10 | > 10
14 | CCCNc1ncnc2[nH]cc(C(=O)c3ccc(Nc4ccc(CC)nc4)nc3F)c12 [Compound P-4122, [6-[(6-ethyl-3-pyridyl)amino]-2-fluoro-3-pyridyl]-[4-(propylamino)-7H-pyrrolo[2,3-d]pyrimidin-5-yl]methanone] | < 0.01 | < 0.01 | < 0.01 | > 10 | > 10
15 | CCNc1ncnc2[nH]cc(C(=O)c3ccc(Nc4ccc(CC)nc4)nc3F)c12 [Compound P-4123, [4-(ethylamino)-7H-pyrrolo[2,3-d]pyrimidin-5-yl]-[6-[(6-ethyl-3-pyridyl)amino]-2-fluoro-3-pyridyl]methanone] | < 0.01 | < 0.01 | < 0.01 | > 10 | > 10
16 | CCc1ccc(Nc2ccc(C(=O)c3c[nH]c4ncnc(NC)c34)c(F)n2)cn1 [Compound P-4124, [6-[(6-ethyl-3-pyridyl)amino]-2-fluoro-3-pyridyl]-[4-(methylamino)-7H-pyrrolo[2,3-d]pyrimidin-5-yl]methanone] | < 0.01 | < 0.01 | < 0.01 | < 5 | > 10
17 | CCc1ccc(Nc2ccc(C(=O)c3c[nH]c4ncnc(NC5CC5)c34)c(F)n2)cn1 [Compound P-4125, [4-(cyclopropylamino)-7H-pyrrolo[2,3-d]pyrimidin-5-yl]-[6-[(6-ethyl-3-pyridyl)amino]-2-fluoro-3-pyridyl]methanone] | < 0.01 | < 0.01 | < 0.01 | > 10 | > 10
18 | COc1ccc(Nc2ccc(C(=O)c3c[nH]c4ncnc(NC5CC5)c34)c(F)n2)cn1 [Compound P-4126, [4-(cyclopropylamino)-7H-pyrrolo[2,3-d]pyrimidin-5-yl]-[2-fluoro-6-[(6-methoxy-3-pyridyl)amino]-3-pyridyl]methanone] | < 0.01 | < 0.01 | < 0.01 | > 10 | < 10
19 | Fc1cc(Cc2c[nH]c3ncnc(NC4CC4)c23)cnc1NC1CCC(F)(F)CC1 [Compound P-4127, N-cyclopropyl-5-[[6-[(4,4-difluorocyclohexyl)amino]-5-fluoro-3-pyridyl]methyl]-7H-pyrrolo[2,3-d]pyrimidin-4-amine] | < 0.01 | < 1 | < 0.1 | 5 to 10 | < 5
